Laboratory results from patent US6413517B1, “Identification of broadly reactive DR restricted epitopes” (Epimmune, Inc., priority 1997, dated 2002).
Where two headings read alike, the source gives them in different places. No end group written: not given here.

How the values were obtained:
[1] = biological target: T1, DRB1*0405 (DR4w15) (Homo sapiens, UniProt P01903+P01911, A100R/A169T/D86S/F76Y/I96L/K127E/L162R/M171V/N62H/P40V/Q125Y/R42H/S133A/S149N/S66Y/V115G/V209L/W38E); test: biochemical; assay type: binding
T1 construct: Epstein-Barr virus (EBV) transformed homozygous cell lines were used as sources; endogenous in cells; host or cells: KT3 (EBV-transformed homozygous B cell line)

[2] = biological target: T2, DRB1*0802 (DR8w2) (Homo sapiens, UniProt P01903+P01911, A100R/A103L/A169T/F76Y/H45Y/I96F/K41T/L162R/M171V/P40S/Q125H/Q178H/Q39Y/Q99D/R218S/R42G/S66Y/V115G/W38E); test: biochemical; assay type: binding
T2 construct: Epstein-Barr virus (EBV) transformed homozygous cell lines were used as sources; endogenous in cells; host or cells: OLL (EBV-transformed homozygous B cell line)

[3] = biological target: T3, DRB1*0101 (DR1) (Homo sapiens, UniProt P01903+P01911, A100R/D57E/F55L/F60I/F76Y/I96L/L162R/M171V/P40L/Q125E/R42F/V115G/Y59C); test: biochemical; assay type: binding
T3 construct: Epstein-Barr virus (EBV) transformed homozygous cell lines were used as sources; endogenous in cells; host or cells: LG2 (EBV-transformed homozygous B cell line)

[4] = biological target: T4, DRB1*0901 (DR9) (Homo sapiens, UniProt P01903+P01911, A100R/A103E/D57H/D86V/F55Y/F60I/F76Y/I96F/K127E/L162R/M171V/P40D/Q125H/Q99R/R33Q/R42F/S133A/S66N/T210M/V115G/W38K/Y107V/Y59G/Y89S); test: biochemical; assay type: binding
T4 construct: Epstein-Barr virus (EBV) transformed homozygous cell lines were used as sources; endogenous in cells

[5] = biological target: T5, DRB1*0701 (DR7) (Homo sapiens, UniProt P01903+P01911, A100R/A102G/A103Q/D57E/D86V/E43K/F76Y/K127E/L162R/M171V/P40G/Q125H/Q99D/R33Q/R42Y/R54Q/S133A/S66F/T210M/V115G/Y107V/Y59L/Y89S); test: biochemical; assay type: binding
T5 construct: Epstein-Barr virus (EBV) transformed homozygous cell lines were used as sources; endogenous in cells; host or cells: PITOUT (EBV-transformed homozygous B cell line)

[6] = biological target: T6, DRB5*0101 (DR2w2a) (Homo sapiens, UniProt P01903+Q30154); test: biochemical; assay type: binding
T6 construct: Epstein-Barr virus (EBV) transformed homozygous cell lines were used as sources; endogenous in cells; host or cells: GM3107 (EBV-transformed homozygous B cell line)

[7] = biological target: T7, DRB1*1302 (DR6w19) (Homo sapiens, UniProt P01903+P01911, A100E/A169T/K41T/L162R/M171V/P40S/Q125H/Q178H/Q39Y/Q99D/R42S/S66N/T262R/V115G/W38E/Y61H); test: biochemical; assay type: binding
T7 construct: Epstein-Barr virus (EBV) transformed homozygous cell lines were used as sources; the source of Class II molecules the EBV transformed homozygous cell line H0301; endogenous in cells; host or cells: H0301 (EBV-transformed homozygous B cell line)

[8] = biological target: T8, DRB1*1101 (DR5w11) (Homo sapiens, UniProt P01903+P01911, A100R/A169T/A87E/I96F/K41T/L162R/M171V/P40S/Q125H/Q178H/Q39Y/Q99D/R42S/S66Y/T262R/V115G/W38E); test: biochemical; assay type: binding
T8 construct: Epstein-Barr virus (EBV) transformed homozygous cell lines were used as sources; endogenous in cells; host or cells: SWEIG (EBV-transformed homozygous B cell line)
T8 sequence (P01903 26-254, other chains not shown): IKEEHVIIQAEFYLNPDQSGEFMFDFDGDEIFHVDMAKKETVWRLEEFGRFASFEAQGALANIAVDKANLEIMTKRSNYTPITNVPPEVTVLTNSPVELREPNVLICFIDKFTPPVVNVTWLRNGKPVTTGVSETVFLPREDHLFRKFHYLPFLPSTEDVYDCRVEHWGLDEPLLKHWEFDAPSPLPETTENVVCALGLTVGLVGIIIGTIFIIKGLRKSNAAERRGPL

[9] = biological target: T9, DRB1*0301 (DR3w17) (Homo sapiens, UniProt P01903+P01911, A100K/A102G/A103R/A169T/F55Y/I96L/K41T/L162R/M171V/P40S/Q125H/Q178H/Q39Y/R42S/S66N/T106N/T262R/W38E/Y61H); test: biochemical; conditions: Binding Capacity (IC50% nM) DR3
[10] = biological target: T10, DRB1*0401 (DR4w4) (Homo sapiens, UniProt P01903+P01911, A100K/A169T/F76Y/I96L/K127E/L162R/M171V/N62H/P40V/Q125Y/R42H/S133A/S149N/S66Y/V115G/V209L/W38E); test: biochemical; assay type: binding
T10 construct: Epstein-Barr virus (EBV) transformed homozygous cell lines were used as sources; endogenous in cells; host or cells: PREISS (EBV-transformed homozygous B cell line)

[11] = biological target: T9, DRB1*0301 (DR3w17); conditions: read-out: Binding Capacity (IC 50% nM) Other Alleles DR3
[12] = biological target: T11, DRB1*1501 (DR2w2b) (Homo sapiens, UniProt P01903+P01911); test: biochemical; assay type: binding
T11 construct: expressed in transfected cells; host or cells: transfected fibroblasts L466.1

[13] = biological target: T12, DRB1*1201 (DR5w12) (Homo sapiens, UniProt P01903+P01911, A100R/A169T/D57E/D86V/F55L/H45Y/K41T/L162R/M171V/P40S/Q125H/Q178H/Q39Y/Q99D/R42G/S66L/T262R/V114A/V67L/W38E/Y59H/Y61H/Y89S); test: biochemical; assay type: binding
T12 construct: Epstein-Barr virus (EBV) transformed homozygous cell lines were used as sources; endogenous in cells; host or cells: Herluf (EBV-transformed homozygous B cell line)

[14] = read-out: Binding Capacity (IC 50% nM) Other Alleles DR4w15
[15] = Binding Capacity (IC50% nM) DR8w2
[16] = read-out: Binding Capacity (IC 50% nM) Other Alleles DR8w2
[17] = Binding Capacity (IC 50% nM) DR1,4,7 DRB1
[18] = Binding Capacity (IC 50% nM) Other Alleles DR9
[19] = Binding Capacity (IC 50% nM) DR1,4,7 DR7
[20] = Binding Capacity (IC50% nM) DR2w2a
[21] = read-out: Binding Capacity (IC 50% nM) Other Alleles DR2w2a
[22] = Binding Capacity (IC 50% nM) Other Alleles DR6w19
[23] = Binding Capacity (IC50% nM) DR5w11
[24] = read-out: Binding Capacity (IC 50% nM) Other Alleles DR5w11
[25] = read-out: Binding Capacity (IC 50% nM) DR1,4,7 DR4w4
[26] = Binding Capacity (IC 50% nM) Other Alleles DR2w2b
[27] = Binding Capacity (IC50% nM) DR5w12
[28] = read-out: Binding Capacity (IC 50% nM) Other Alleles DR5w12
[29] = Binding Capacity (IC50% nM) DR4w15
[30] = Binding Capacity (IC50% nM) DR1
[31] = Binding Capacity (IC50% nM) DR9
[32] = Binding Capacity (IC50% nM) DR6w19
[33] = read-out: Binding Capacity (IC 50% nM) Other Alleles DR6w19
[34] = Binding Capacity (IC50% nM) DR4w4

Row | Compound | IC50 [1, 14] | IC50 [2, 15] | IC50 [2, 16] | IC50 [3, 17] | IC50 [4, 18] | IC50 [5, 19] | IC50 [6, 20] | IC50 [6, 21] | IC50 [7, 22] | IC50 [8, 23] | IC50 [8, 24] | IC50 [9] | IC50 [10, 25] | IC50 [11] | IC50 [12, 26] | IC50 [13, 27] | IC50 [13, 28] | IC50 [1, 29] | IC50 [3, 30] | IC50 [4, 31] | also measured
1 | CC(C)C[C@H](NC(=O)CNC(=O)[C@H](C)NC(=O)[C@@H](N)CC(C)C)C(=O)N[C@@H](CC(C)C)C(=O)NCC(=O)N[C@@H](CC(N)=O)C(=O)N[C@H](C(=O)N[C@@H](CO)C(=O)N[C@H](C(=O)N[C@H](C(=O)N[C@@H](CC(C)C)C(=O)N[C@@H](CC(C)C)C(=O)NCC(=O)NCC(=O)O)C(C)C)[C@@H](C)O)C(C)C [Peptide F107.10] | > 1000 nM | > 10000 nM | > 1000 nM | < 1000 nM | < 1000 nM | < 1000 nM | > 10000 nM | > 1000 nM | < 1000 nM | > 10000 nM | > 1000 nM | > 10000 nM | > 1000 nM | > 1000 nM | < 1000 nM | > 10000 nM | > 1000 nM | – | – | – | –
2 | CC[C@H](C)[C@H](NC(=O)[C@H](CO)NC(=O)[C@H](CO)NC(=O)[C@H](CC(N)=O)NC(=O)[C@@H](NC(=O)[C@@H](NC(=O)[C@H](CC(N)=O)NC(=O)[C@H](Cc1ccccc1)NC(=O)[C@@H](N)C(C)C)C(C)C)C(C)C)C(=O)NCC(=O)N[C@@H](CC(C)C)C(=O)N[C@H](C(=O)N[C@@H](CCSC)C(=O)N[C@H](C(=O)N[C@@H](CC(C)C)C(=O)O)C(C)C)[C@@H](C)CC [Peptide F107.23] | > 1000 nM | > 10000 nM | > 1000 nM | < 1000 nM | < 1000 nM | < 1000 nM | > 10000 nM | > 1000 nM | < 1000 nM | > 10000 nM | > 1000 nM | > 10000 nM | > 1000 nM | > 1000 nM | – | > 10000 nM | > 1000 nM | – | – | – | IC50 ([12]; read-out: Binding Capacity (IC 50% nM) Other Alleles DR2w2b): > 1000 nM
3 | GPPTALRSFGFAFGYM [Peptide 1136.29] | – | 2970 nM | > 1000 nM | < 1000 nM | < 1000 nM | < 1000 nM | 468 nM | – | – | 6250 nM | > 1000 nM | > 10000 nM | > 1000 nM | > 1000 nM | < 1000 nM | 1000 nM | – | 745 nM | 32 nM | 183 nM | IC50 ([1]; Binding Capacity (IC 50% nM) Other Alleles DR4w15): < 1000 nM; IC50 ([6]; Binding Capacity (IC 50% nM) Other Alleles DR2w2a): < 1000 nM; IC50 [7, 32]: > 10000 nM; IC50 [7, 33]: > 1000 nM; IC50 [10, 34]: 4330 nM; IC50 ([12]; Binding Capacity (IC50% nM) DR2w2b): 1.1 nM; IC50 ([13]; Binding Capacity (IC 50% nM) Other Alleles DR5w12): < 1000 nM
4 | LAAIIFLFGPPTALRS [Peptide 1136.28] | > 1000 nM | 7540 nM | > 1000 nM | < 1000 nM | – | – | 1480 nM | > 1000 nM | – | – | > 1000 nM | > 10000 nM | – | > 1000 nM | < 1000 nM | 4480 nM | > 1000 nM | 6670 nM | 0.23 nM | > 10000 nM | IC50 ([4]; read-out: Binding Capacity (IC 50% nM) Other Alleles DR9): > 1000 nM; IC50 ([5]; Binding Capacity (IC50% nM) DR7): 3620 nM; IC50 ([5]; read-out: Binding Capacity (IC 50% nM) DR1,4,7 DR7): > 1000 nM; IC50 [7, 32]: 3180 nM; IC50 [7, 33]: > 1000 nM; IC50 ([10]; Binding Capacity (IC 50% nM) DR1,4,7 DR4w4): < 1000 nM; IC50 [10, 34]: 849 nM
